Measurements from ChEMBL document CHEMBL4321852, “Structure-Based and Property-Driven Optimization of N-Aryl Imidazoles toward Potent and Selective Oral RORγt Inhibitors” (J Med Chem, 2019).
pIC50: −log10 of the molar value. Values after ≈ are worked out from the molar mass of the structure shown.

How the values were obtained:
[1] = Dose normalized Cmax in Sprague-Dawley rat at 3 mg/kg, po; format: ADME, organism-based; settings: in vivo
[2] = Intrinsic clearance in rat liver microsomes; format: ADME, Microsome; settings: read-out: CLH
[3] = Oral bioavailability in Sprague-Dawley rat at 3 mg/kg; format: ADME, organism-based; settings: in vivo
[4] = Clearance in Sprague-Dawley rat at 1 mg/kg, iv; format: ADME, organism-based; settings: in vivo
[5] = Distribution coefficient of the compound, high-throughput logD using octanol-buffer at pH 7.4 by LC-MS/MS analysis shake flask method; format: physicochemical
[6] = Dose normalized AUC in Sprague-Dawley rat at 1 mg/kg, iv; format: ADME, organism-based; settings: in vivo
[7] = Equilibrium aqueous solubility of the compound in pH 6.8 solution; format: physicochemical; settings: aqueous pH 6.8 solution
[8] = Inverse agonist activity at RORgammat in rat whole blood assessed as reduction in Con A/IL-23-stimulated IL-17 secretion after 72 hrs by ELISA
[9] = Lipophilicity of the compound, high-throughput logP using octanol-coated immobilized artificial membranes at pH 7.4; format: physicochemical
[10] = target: Cytochrome P450 3A4 (Homo sapiens, UniProt P08684); assay: Time dependent inhibition of CYP3A4 (unknown origin); format: ADME; parameters: concentration or dose not given beside the values
[11] = Inhibition of RORgammat in rat CD4+ T-cells polarized with Th17 cytokine mix assessed as inhibition of IL-17 secretion
[12] = Terminal half life in Sprague-Dawley rat at 1 mg/kg, iv; format: ADME, organism-based; settings: in vivo, read-out: beta t1/2 (converted)
[13] = Dose normalized AUC in Sprague-Dawley rat at 3 mg/kg, po; format: ADME, organism-based; settings: in vivo
[14] = Volume of distribution at steady state in Sprague-Dawley rat at 1 mg/kg, iv; format: ADME, organism-based; settings: in vivo, read-out: Vdss
[15] = Tmax in Sprague-Dawley rat at 3 mg/kg, po; format: ADME, organism-based; settings: in vivo

Sequence of Cytochrome P450 3A4 (P08684 whole entry): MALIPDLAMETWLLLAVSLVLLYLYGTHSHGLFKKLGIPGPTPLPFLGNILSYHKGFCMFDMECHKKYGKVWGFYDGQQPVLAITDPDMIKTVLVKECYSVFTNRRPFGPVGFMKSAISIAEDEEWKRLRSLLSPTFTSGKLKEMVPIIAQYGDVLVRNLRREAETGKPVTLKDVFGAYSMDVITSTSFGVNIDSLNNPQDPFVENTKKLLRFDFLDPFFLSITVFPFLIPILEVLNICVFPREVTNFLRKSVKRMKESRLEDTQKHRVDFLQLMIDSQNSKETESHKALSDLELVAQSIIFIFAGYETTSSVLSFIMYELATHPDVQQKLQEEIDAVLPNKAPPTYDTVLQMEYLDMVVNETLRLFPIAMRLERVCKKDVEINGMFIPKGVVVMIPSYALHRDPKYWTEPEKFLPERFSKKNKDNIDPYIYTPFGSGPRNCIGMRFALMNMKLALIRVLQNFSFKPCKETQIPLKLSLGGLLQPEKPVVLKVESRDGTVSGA

Row | SMILES | microsomal CLint [2] [µL/min/mg] | logD [5] | solubility thermodynamic [7] [µM] | pIC50 [8] | logD [9] | pIC50 [11] | also measured
1 | Cc1c(C(F)(F)F)nc(-c2ccc(Cl)o2)n1-c1c(Cl)ccc(N2CC(C(=O)O)C2)c1Cl (single isomer, unassigned; atropisomer) | 56 | 2.4 | > 1000 | 5.35 | 2.4 | 5.77 | Cmax/dose [1]: 181 nM; bioavailability [3]: 80%; clearance [4]: 30 mL/min/kg; AUC/dose [6]: 1179 nM·h; K [10]: 0.047 min⁻¹; half-life [12]: 276 min; AUC/dose [13]: 945 nM·h; Vd [14]: 4 L/kg; Tmax [15]: 78 min
2 | N#Cc1cccc(C#N)c1-n1cc(C2CC2)nc1-c1cnco1 | 33 | 1.1 | > 1000 | – | 1.1 | – | –
3 | Cc1c(C(F)(F)F)nc(-c2ccc(Cl)o2)n1-c1c(Cl)cccc1Cl | 722 | 6.3 | < 4 | – | 6.3 | – | –
4 | CC(C)Cc1cn(-c2c(C#N)cccc2C#N)c(-c2cnco2)n1 | 153 | 2 | 350 (≈ 111 µg/mL) | – | 2 | – | –
5 | Cc1c(CC(C)C)nc(-c2ccc(Cl)o2)n1-c1c(Cl)ccc(N2CC(C(=O)O)C2)c1Cl (single isomer, unassigned; atropisomer) | 222 | 3 | 690 (≈ 333 µg/mL) | – | 3 | – | Cmax/dose [1]: 166 nM; bioavailability [3]: 45%; clearance [4]: 228 mL/min/kg; AUC/dose [6]: 156 nM·h; half-life [12]: 12 min; AUC/dose [13]: 70 nM·h; Vd [14]: 3.6 L/kg; Tmax [15]: 36 min
6 | Cc1c(Cc2ccccc2)nc(-c2ccco2)n1-c1c(Cl)cccc1Cl | – | – | – | 7.09 | > 6.9 | 7.25 | –
7 | CC(C)OC(=O)[C@H](C)N(C(=O)c1ccco1)c1c(Cl)cccc1Cl | – | – | – | – | 4.1 | – | –
8 | Cc1c(C(F)(F)F)nc(-c2ccc(Cl)o2)n1-c1c(Cl)ccc(N2CC(C(N)=O)C2)c1Cl (single isomer, unassigned; atropisomer) | 169 | 4.9 | 40 (≈ 19.7 µg/mL) | – | 4.9 | – | –
9 | Cc1c(C(F)(F)F)nc(-c2ccc(Cl)o2)n1-c1c(Cl)ccc(N2CC(c3nnn[nH]3)C2)c1Cl | 49 | 2.5 | > 1000 | – | 2.5 | – | –
10 | Cc1c(C(F)(F)F)nc(-c2ccc(Cl)o2)n1-c1c(Cl)ccc(N2CC(CC(=O)O)C2)c1Cl | – | 2.5 | – | 6.16 | – | 6.06 | K [10]: > 0.1 min⁻¹
11 | Cc1c(CC(C)C)nc(-c2ccco2)n1-c1c(Cl)cccc1Cl | 693 | > 6.9 | < 4 | 6.53 | > 6.9 | 6.49 | –
12 | Cc1c(C2(C(F)(F)F)CC2)nc(-c2ccc(Cl)o2)n1-c1c(Cl)ccc(NCC(C)(C)C(=O)O)c1Cl (single isomer, unassigned; atropisomer) | – | 3.2 | – | 7.10 | – | 6.51 | K [10]: 0.011 min⁻¹
13 | CCOC(=O)C(C)N(C(=O)c1cccs1)c1c(C)cccc1Cl (racemic) | – | – | – | – | 3.6 | – | –
